Marks after values point to notes of the source that are not given here.
Assays:
ER = ER (Homo sapiens, UniProt P31947); assay: MS (KD,app), ER; type: binding; conditions: 24 hr incubation
p65_45/14-3-3γ [1] = target: T1, p65_45/14-3-3γ (Homo sapiens, UniProt P61981); assay: Fluorescence anisotropy protein titration, p65_45 peptide/14-3-3γ in presence of 1 mM fragment; type: binding; parameters: The full length 14-3-3γ was dialysis against 25 mM HEPES pH7.5; made in house; host or cells: E. coli BL21(DE3), pPROEX HTb
T1 sequence (P61981 whole entry, other chains not shown, the tested form may be a part): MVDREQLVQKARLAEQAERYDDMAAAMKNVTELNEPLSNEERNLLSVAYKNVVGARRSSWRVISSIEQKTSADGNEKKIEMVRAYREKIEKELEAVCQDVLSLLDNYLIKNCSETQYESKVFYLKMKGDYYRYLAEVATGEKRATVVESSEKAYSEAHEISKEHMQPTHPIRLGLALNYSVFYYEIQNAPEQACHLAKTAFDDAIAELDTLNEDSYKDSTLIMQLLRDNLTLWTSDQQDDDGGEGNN
Method: SF: the fold-change of apparent KD in comparison to a DMSO control.
During compound titrations, the 14-3-3γ concentration was constant 50 μM and the compound was titrated in a 1:1 dilution series. In protein titrations, 14-3-3γ was titrated in a 1:1 dilution series in the presence of 1 mM compound. The plates (Corning 384 well plates, black, round bottom, low binding) were incubated for 3 h RT prior to fluorescence anisotropy (FA) measurements with the Tecan Infinite 500 plate reader (FITC dye: excitation 485 nm, emission 535 nm). Dilution series were prepared in FA buffer (10 mM HEPES pH 7.4, 150 mM NaCl, 0.1% Tween20). All measurements were performed once.

p65_45/14-3-3γ [2] = target: T1, p65_45/14-3-3γ; assay: Fluorescence anisotropy compound titration, p65_45 peptide with 50 μM 14-3-3γ (CC50)
Method: Biochemical assessment of fragments 1-7 used a fluorescence anisotropy (FA) assay. […] The subsequent outputs are herein term termed ‘half maximal complex concentration (CC50)’. […] We sought to develop a structure-activity relationship (SAR) based upon these four chemotypes with the specific goal to develop high affinity molecular glues which orthosterically engage with p65 and stabilize the 14-3-3/p65 complex.
During compound titrations, the 14-3-3γ concentration was constant 50 μM and the compound was titrated in a 1:1 dilution series. In protein titrations, 14-3-3γ was titrated in a 1:1 dilution series in the presence of 1 mM compound. […] All measurements were performed once.

Pin1_72/14-3-3γ = target: T2, Pin1_72/14-3-3γ (Homo sapiens, UniProt P61981+Q13526); assay: Fluorescence anisotropy protein titration, Pin1_72/14-3-3γ at constant compound; type: binding; conditions: based on internal DMSO control and 100 μM fragment
T2 construct: the full length 14-3-3γ was dialysis against 25 mM HEPES pH 7.5; made in house; host or cells: E. coli BL21(DE3), pPROEX HTb
T2 sequence (P61981 whole entry, other chains not shown, the tested form may be a part): as above
Excerpt: Inspired by the binding poses of 3 and 9 we combined their structural features to improve stabilization. […] In case of complex stabilization, a left shift of apparent KD values is expected, here described as stabilization factors (SF).
Fluorescence Anisotropy (FA) Assays.

[3] = Table 9, fold-change of apparent KD vs DMSO control
[4] = fold-change of apparent KD in comparison to a DMSO control, 1 mM fragment

ER, sequence (P31947 whole entry, other chains not shown, the tested form may be a part): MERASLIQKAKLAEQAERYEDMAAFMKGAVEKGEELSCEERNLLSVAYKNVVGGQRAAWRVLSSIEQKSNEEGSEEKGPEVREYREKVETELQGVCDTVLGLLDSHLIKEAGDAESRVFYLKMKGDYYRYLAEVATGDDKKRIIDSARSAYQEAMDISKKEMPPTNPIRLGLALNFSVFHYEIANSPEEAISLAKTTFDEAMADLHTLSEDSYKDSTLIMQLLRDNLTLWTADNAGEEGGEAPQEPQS

Compound: O=C(CCl)CCC1CCN(C(=O)C2(Nc3ccc(Cl)cc3)CCOCC2)CC1
- Kd (ER): 0.145 µM

Compound: O=C(CCl)NCCCC1CCN(C(=O)C2(Nc3ccc(Cl)cc3)CCOCC2)CC1
- Kd (ER): < 0.1 µM

Compound: C=CS(=O)(=O)NCC1CCN(C(=O)C2(Nc3ccc(Cl)cc3)CCOCC2)CC1
- Kd (ER): 0.125 µM

Compound: O=Cc1ccc(S(=O)(=O)N2CCC(CNC(=O)CCl)CC2)cc1
- Kd (ER): 150 µM

Compound: O=C(CCl)NCC1CCN(S(=O)(=O)c2ccc(Cl)cc2)CC1
- Kd (ER): 7.15 µM

Compound: CC1CCc2ccccc2N1S(=O)(=O)c1ccc(C=O)cc1 (racemic) [24b, rac-4-[(2-methyl-1,2,3,4-tetrahydroquinolin-1-yl)sulfonyl]benzaldehyde]
- SF (p65_45/14-3-3γ [1]; [3]): 36
- EC50 (p65_45/14-3-3γ [2]): 310 µM

Compound: COC1CCCN(c2cc(C=O)ccc2[N+](=O)[O-])C1 (centres unmarked) [13e, 3-(3-methoxypiperidin-1-yl)-4-nitrobenzaldehyde]
- activity in FA compound titration (p65_45/14-3-3γ [2]): did not elicit significant ternary complex formation

Compound: O=Cc1ccc([N+](=O)[O-])c(N2CCC(O)CC2)c1 [13f, 3-(4-hydroxypiperidin-1-yl)-4-nitrobenzaldehyde]
- activity in FA compound titration (p65_45/14-3-3γ [2]): did not elicit significant ternary complex formation

Compound: O=Cc1ccc([N+](=O)[O-])c(N2CCCC(O)C2)c1 (centres unmarked) [13l, 3-(3-hydroxypiperidin-1-yl)-4-nitrobenzaldehyde]
- activity in FA compound titration (p65_45/14-3-3γ [2]): did not elicit significant ternary complex formation

Compound: O=Cc1ccc([N+](=O)[O-])c(N2CCOCC2)c1 [13q, 3-(morpholin-4-yl)-4-nitrobenzaldehyde]
- activity in FA compound titration (p65_45/14-3-3γ [2]): did not elicit significant ternary complex formation

Compound: O=Cc1ccc(-n2ccnc2Br)nc1 [16d, 6-(2-bromo-1H-imidazol-1-yl)pyridine-3-carbaldehyde]
- activity in FA compound titration (p65_45/14-3-3γ [2]): induced an increase in anisotropy

Compound: O=Cc1ccc(-n2cncc2[C@H]2CCCN2CC2CC2)nc1 [16e, 6-{5-[(2R)-1-(cyclopropylmethyl)pyrrolidin-2-yl]-1H-imidazol-1-yl}pyridine-3-carbaldehyde]
- activity in FA compound titration (p65_45/14-3-3γ [2]): induced an increase in anisotropy

Compound: Cn1ccc(NS(=O)(=O)c2ccc(C=O)cc2)n1 [23b, 4-formyl-N-(1-methyl-1H-pyrazol-3-yl)benzene-1-sulfonamide]
- SF (p65_45/14-3-3γ [1]; [4]): 1.5

Compound: CN(C)S(=O)(=O)c1ccc(C=O)cc1 [23c, 4-formyl-N,N-dimethylbenzene-1-sulfonamide]
- SF (p65_45/14-3-3γ [1]; [4]): 1.8

Compound: COC1CN(S(=O)(=O)c2ccc(C=O)cc2)C1 [23d, 4-[(3-methoxyazetidin-1-yl)sulfonyl]benzaldehyde]
- SF (p65_45/14-3-3γ [1]; [4]): 5.1

Compound: C[C@H]1CCCN1S(=O)(=O)c1ccc(C=O)cc1 [23e, 4-{[(2S)-2-methylpyrrolidin-1-yl]sulfonyl}benzaldehyde]
- SF (p65_45/14-3-3γ [1]; [4]): 20.6

Compound: CN1CCCN(S(=O)(=O)c2ccc(C=O)cc2)CC1 [23g, 4-[(4-methyl-1,4-diazepan-1-yl)sulfonyl]benzaldehyde]
- SF (p65_45/14-3-3γ [1]; [4]): 4.0

Compound: CN1CCN(S(=O)(=O)c2ccc(C=O)cc2)CC1 [23h, 4-[(4-methylpiperazin-1-yl)sulfonyl]benzaldehyde]
- SF (p65_45/14-3-3γ [1]; [4]): 3.3

Compound: CCN1CCN(S(=O)(=O)c2ccc(C=O)cc2)CC1 [23i, 4-[(4-ethylpiperazin-1-yl)sulfonyl]benzaldehyde]
- SF (p65_45/14-3-3γ [1]; [4]): 3.3

Compound: CC(C)N1CCN(S(=O)(=O)c2ccc(C=O)cc2)CC1 [23j, 4-{[4-(propan-2-yl)piperazin-1-yl]sulfonyl}benzaldehyde]
- SF (p65_45/14-3-3γ [1]; [4]): 5.5

Compound: COCCN1CCN(S(=O)(=O)c2ccc(C=O)cc2)CC1 [23l, 4-{[4-(2-methoxyethyl)piperazin-1-yl]sulfonyl}benzaldehyde]
- SF (p65_45/14-3-3γ [1]; [4]): 4.5

Compound: O=Cc1ccc(S(=O)(=O)N2CCC(N3CCCC3)CC2)cc1 [23m, 4-{[4-(pyrrolidin-1-yl)piperidin-1-yl]sulfonyl}benzaldehyde]
- SF (p65_45/14-3-3γ [1]; [4]): 3.5

Compound: CN(C)C1CCN(S(=O)(=O)c2ccc(C=O)cc2)CC1 [23n, 4-{[4-(dimethylamino)piperidin-1-yl]sulfonyl}benzaldehyde]
- SF (p65_45/14-3-3γ [1]; [4]): 3.5

Compound: CC(=O)N1CCN(S(=O)(=O)c2ccc(C=O)cc2)CC1 [23o, 4-[(4-acetylpiperazin-1-yl)sulfonyl]benzaldehyde]
- SF (p65_45/14-3-3γ [1]; [4]): 4.5

Compound: O=Cc1ccc(S(=O)(=O)N2CCNC(=O)C2)cc1 [23p, 4-[(3-oxopiperazin-1-yl)sulfonyl]benzaldehyde]
- SF (p65_45/14-3-3γ [1]; [4]): 2.2

Compound: O=Cc1ccc(S(=O)(=O)N2CCCC(O)C2)cc1 (centres unmarked) [23q, 4-[(3-hydroxypiperidin-1-yl)sulfonyl]benzaldehyde]
- SF (p65_45/14-3-3γ [1]; [4]): 10.3

Compound: COC1CCCN(S(=O)(=O)c2ccc(C=O)cc2)C1 (centres unmarked) [23r, 4-[(3-methoxypiperidin-1-yl)sulfonyl]benzaldehyde]
- SF (p65_45/14-3-3γ [1]; [4]): 7.5

Compound: O=Cc1ccc(S(=O)(=O)N2CCC(O)CC2)cc1 [23s, 4-[(4-hydroxypiperidin-1-yl)sulfonyl]benzaldehyde]
- SF (p65_45/14-3-3γ [1]; [4]): 7.2

Compound: COC1CCN(S(=O)(=O)c2ccc(C=O)cc2)CC1 [23t, 4-[(4-methoxypiperidin-1-yl)sulfonyl]benzaldehyde]
- SF (p65_45/14-3-3γ [1]; [4]): 16.5

Compound: O=Cc1ccc(S(=O)(=O)N2CCOCC2)cc1 [23u, 4-(morpholine-4-sulfonyl)benzaldehyde]
- SF (p65_45/14-3-3γ [1]; [4]): 6.3

Compound: CN(C1CCCCC1)S(=O)(=O)c1ccc(C=O)cc1 [23w, N-cyclohexyl-4-formyl-N-methylbenzene-1-sulfonamide]
- SF (p65_45/14-3-3γ [1]; [4]): 12.7

Compound: CN(C1CCOCC1)S(=O)(=O)c1ccc(C=O)cc1 [23x, 4-formyl-N-methyl-N-(oxan-4-yl)benzene-1-sulfonamide]
- SF (p65_45/14-3-3γ [1]; [4]): 5.9

Compound: O=Cc1ccc(S(=O)(=O)N2CCc3ccccc3C2)cc1 [23y, 4-(1,2,3,4-tetrahydroisoquinoline-2-sulfonyl)benzaldehyde]
- SF (p65_45/14-3-3γ [1]; [3]): 0.7^a
- SF (p65_45/14-3-3γ [1]; [4]): 0.7
- EC50 (p65_45/14-3-3γ [2]): 180 µM

Compound: O=Cc1ccc(S(=O)(=O)N2CCc3ccccc32)cc1 [24a, 4-(2,3-dihydro-1H-indole-1-sulfonyl)benzaldehyde]
- SF (p65_45/14-3-3γ [1]; [3]): 30
- EC50 (p65_45/14-3-3γ [2]): 220 µM

Compound: O=Cc1ccc(S(=O)(=O)N2CCCc3cc(F)ccc32)cc1 [24c, 4-[(6-fluoro-1,2,3,4-tetrahydroquinolin-1-yl)sulfonyl]benzaldehyde]
- SF (p65_45/14-3-3γ [1]; [3]): 56
- EC50 (p65_45/14-3-3γ [2]): 140 µM

Compound: O=Cc1ccc(S(=O)(=O)N2CCCc3cc(Cl)ccc32)cc1 [24d, 4-[(6-chloro-1,2,3,4-tetrahydroquinolin-1-yl)sulfonyl]benzaldehyde]
- SF (p65_45/14-3-3γ [1]; [3]): 36
- EC50 (p65_45/14-3-3γ [2]): 160 µM

Compound: COc1ccc2c(c1)CCCN2S(=O)(=O)c1ccc(C=O)cc1 [24e, 4-[(6-methoxy-1,2,3,4-tetrahydroquinolin-1-yl)sulfonyl]benzaldehyde]
- SF (p65_45/14-3-3γ [1]; [3]): 34
- EC50 (p65_45/14-3-3γ [2]): 120 µM

Compound: O=Cc1ccc(S(=O)(=O)N2CCOc3ccccc32)cc1 [24f, 4-(3,4-dihydro-2H-1,4-benzoxazine-4-sulfonyl)benzaldehyde]
- SF (p65_45/14-3-3γ [1]; [3]): 23
- EC50 (p65_45/14-3-3γ [2]): 220 µM

Compound: O=Cc1ccc(S(=O)(=O)N2CCOc3ccc(F)cc32)cc1 [24g, 4-[(6-fluoro-3,4-dihydro-2H-1,4-benzoxazin-4-yl)sulfonyl]benzaldehyde]
- SF (p65_45/14-3-3γ [1]; [3]): 22
- EC50 (p65_45/14-3-3γ [2]): 310 µM

Compound: O=Cc1ccc(S(=O)(=O)N2CCOc3cc(Cl)ccc32)cc1 [24h, 4-[(7-chloro-3,4-dihydro-2H-1,4-benzoxazin-4-yl)sulfonyl]benzaldehyde]
- SF (p65_45/14-3-3γ [1]; [3]): 28
- EC50 (p65_45/14-3-3γ [2]): 250 µM

Compound: COc1ccc2c(c1)OCCN2S(=O)(=O)c1ccc(C=O)cc1 [24i, 4-[(7-methoxy-3,4-dihydro-2H-1,4-benzoxazin-4-yl)sulfonyl]benzaldehyde]
- EC50 (p65_45/14-3-3γ [2]): 110 µM

Compound: O=Cc1ccc(-n2ccnc2-c2ccccc2)cc1C(F)(F)F [compound 14, 4-(2-phenyl-1H-imidazol-1-yl)-2-(trifluoromethyl)benzaldehyde]
- SF (fold stabilization) (Pin1_72/14-3-3γ): 1.2

Compound: O=Cc1ccc(-n2ccnc2-c2ccccc2)cc1O [compound 19, 2-hydroxy-4-(2-phenyl-1H-imidazol-1-yl)benzaldehyde]
- SF (fold stabilization) (Pin1_72/14-3-3γ): 4.9

— patent publication US20230142739A1, “PROTEIN-PROTEIN INTERACTION STABILIZERS” (The Regents of the University of California, priority 2020, published 2023)
